According to patent publication US20260191793A1, “HBV SPECIFIC EXOSOMES AND USES THEREOF” (priority 2022, published 2026):

Columns and labels:
[1] = tested on: HepDE19 cells; experiment: Cytotoxicity, cell viability by MTT assay; format: cell-based, human; conditions: for cell viability in the presence of TNFα: Tet-free medium, TNFα (10 ng/ml); for cell viability (MTT): with or without Tet-free medium, 24 h, vs non-transfected (NT) control
Protocol: The MTT assay was used to determine metabolic activity and cell viability as an indicator of cellular cytotoxicity. Twenty-four hours after gRNA/Cas9 transfection, the cells were cultured in a Tet-free medium for an additional 24 h. For measuring cell proliferation, the cells were cultured in the Tet-free medium for an additional 3 days in a 96-well plate. The culture medium (100 μl) was changed and MTT reagent (0.5 mg/ml) was added at 37° C. for 4 h, followed by measuring the absorbance at 550-690 nm using a spectrophotometer (BioTek SYNERGY H1).
NAD (P) H-dependent cellular oxidoreductase enzymes reduce the tetrazolium MTT (3-(4,5-Dimethylthiazol 2-yl)-2,5-diphenyltetrazolium bromide) salt into insoluble formazan, which indicates the overall survival and metabolic activity of a living cell. To determine whether gRNA5/Cas9 or gRNA9/Cas9 exert any cytotoxic effects on HepDE19 cells, cell viability after transfection with gRNA5 or gRNA9 in the presence or absence of Tet-free medium (for HBV induction) for 24 h was measured using the MTT assay. […] Since HBV itself is not a direct cytopathic pathogen but can induce cell injury via immune-mediated mechanisms, the viability of transfected and non-transfected HepDE19 cells cultured in a Tet-free medium in the presence of TNFα, which can induce apoptotic cell death, was observed. […] Moreover, flow cytometry analysis was performed to detect the cell surface apoptotic marker annexin V and the loss of the plasma membrane integrity (measured by up taking 7-ADD). Cell apoptosis was then evaluated by measuring the Av and 7ADD levels in gRNA-transfected HepDE19 cells with or without Tet-free medium. No significant differences in cell apoptosis among the different treatments were observed (FIG. 16C). Finally, the proliferative ability of HepDE19 cells with or without gRNA transfection for 3 days was assessed, using the MTT assay. No significant differences in cell proliferation were found (FIG. 16D).

[2] = tested on: HBV replication in HepDE19 cells; experiment: Suppression of HBV replication in HepDE19 cells by synthetic gRNA/Cas9 RNPs, one-time transfection (ELISA, real-time PCR, RNAscope); format: cell-based, Hepatitis B virus (HBV); conditions: Tet-free medium 3 days; for HBV mRNA / HBV RNA level (RNAscope) / cccDNA level / pgRNA level / total HBV DNA level: HepDE19 cells, vs gRNAc; for cccDNA level: one-time transfection; for cccDNA level / pgRNA level / total HBV DNA level: real-time PCR; for HBeAg level / HBsAg level: HepDE19 supernatant, ELISA, vs scrambled gRNAc
Protocol: The HepDE19 cell line is tetracycline-controlled HBV stable cells maintained in the presence of 500 μg/ml G418 and 1 μg/ml tetracycline (Tet). Upon withdrawing Tet from the culture fluid of HepDE19 cells, pgRNA transcription, HBV DNA replication, cccDNA formation, and HBV e antigen (HBeAg) production gradually increase in a time-dependent manner. To induce HBV replication, the cells were cultured in a Tet-free medium for 0-10 days, followed by measuring the expression of HBV antigens, HBV cccDNA, and pgRNA using methods previously described. For cell transfection, HepDE19 cells were cultured in Tet-free medium for 2 days. The gRNA/Cas9 RNPs and Lipofectamine CRISPRMAX reagents were prepared in two separate tubes following the manufacturer's instructions. Briefly, 125 ng gRNA, 500 ng GeneArt Platinum Cas9 nuclease, and 1 μl Cas9 Plus reagents were mixed in one tube, and 1.5 μl Lipofectamine CRISPRMAX reagent was added in a separate tube. The gRNA/Cas9 RNP solution was then transferred to the tube containing the Lipofectamine CRISPRMAX solution. The mixture was vortexed and incubated at 25° C. for 10 min to form the gRNA/Cas9 RNP/Lipofectamine CRISPRMAX complex. Meanwhile, HepDE19 cells were seeded in a 24-well plate at 2.0×10^5 cells per well. The gRNA/Cas9 RNP/Lipofectamine CRISPRMAX complex was then added directly to the cell suspension, and the cells were incubated for 72 h, followed by assessing HBV replication with Tet-free medium as described above.
The levels of HBsAg and HBeAg in the supernatants of cell cultures were determined by ELISA (Cat #KA0286 and NBP2-600029, Novus Biologicals, Littleton, CO) according to the manufacturer's protocol. The optical density of antigen levels was measured at 450 nm using a microplate spectrophotometer. The samples were run in triplicate, and the experiments were repeated at least three times.
Total RNA was extracted from the cell pellets by the RNeasy Mini kit (Cat #74104, QIAGEN, Germantown, MD), and 1 μg RNA was converted to cDNA using the Applied Biosystems High-Capacity cDNA Reverse Transcription Kit (Cat #43-688-14, ThermoFisher, Waltham, MA). Quantitative real-time PCR (real-time-qPCR) was performed using iTaq Universal SYBR Green Supermix (Cat #1725124, Bio-Rad, Hercules, CA). The PCR primers were: HBV mRNA forward, 5′-[…]-3′ (SEQ ID NO: 52), reverse, 5′-[…]-3′ (SEQ ID NO: 53); HBV pgRNA forward 5′-[…]-3′ (SEQ ID NO: 54), reverse 5′-[…]-3′ (SEQ ID NO: 55); and GAPDH forward 5′-[…]-3′ (SEQ ID NO: 56), reverse 5′-[…]-3′ (SEQ ID NO: 57). The gene expression levels were determined by the […] method and values were normalized to GAPDH expression as an internal control.
Total and protein-free HBV DNAs were extracted from whole cell lysate using the Hirt DNA method according to a previously published protocol. For HBV cccDNA analysis, the protein-free DNA was treated with 10 units of T5 exonuclease (NEB) at 37° C. for 30 min, followed by 95° C. for 5 min, and diluted 4-fold with nuclease-free water. Next, the cccDNA was cleaned with a DNA clean and concentrator kit (ZYMO Research, Irvine, CA) and used for PCR. HBV total DNA and cccDNA were analyzed by real-time PCR using a TaqMan PCR assay. The primers and probe used to amplify HBV total DNA were: HBV total DNA forward: 5′-[…]-3′ (SEQ ID NO: 58), reverse 5′-[…]-3′ (SEQ ID NO: 59), and internal probe: 5′-FAM-[…]-TAMRA-3′ (SEQ ID NO: 60). The primers and probe used to amplify HBV cccDNA (Genotype D, subtype ayw) were: forward: 5′-[…]-3′ (SEQ ID NO: 61), reverse 5′-[…]-3′ (SEQ ID NO: 62), and internal probe 5′-FAM-[…]-TAMRA-3′ (SEQ ID NO: 63). The PCR reactions were performed in 20 μl volumes and contained 2 μl DNA. The PCR conditions were: 95° C. for 10 min, followed by 45 cycles of 95° C. for 15 s and 64° C. for 30 s. The DNA levels were determined by the […] method and values were normalized to the control group. […]

Sequence	cytotoxicity to hepatocytes (overall conclusion) [1]	cell viability in the presence of TNFα [1]	cell viability (MTT) [1]	cell viability (MTT) ([1]; listed as gRNA9/Cas9)	HBV mRNA / HBV RNA level (RNAscope) [2]	cccDNA level [2]	pgRNA level [2]	total HBV DNA level [2]	HBeAg level [2]	HBsAg level [2]	cell viability (MTT) ([1]; listed as gRNA5/Cas9)
GGTCTCCATGCGACGTGCAGNGG [gRNA9]	not cytotoxic	No cytotoxic effects	no significant differences in the viability	no differences in the viability	significant decreases	significant decreases	significant decreases	significant decreases	significant decreases	significant decreases	–
GTTATCGCTGGATGTGTCTGNGG (guide GUUAUCGCUGGAUGUGUCUGNGG; complexed with Cas9 protein, chemistry not fully specified) [gRNA5, tested as synthetic gRNA/Cas9 RNP]	not cytotoxic	No cytotoxic effects	no significant differences in the viability	–	significant decreases	significant decreases	significant decreases	significant decreases	significant decreases	significant decreases	no differences in the viability
